The nature of series [1]: Dog liver, bile, plasma distribution. As to conditions: for concentration at 4 h: Beagle, po; for concentration at 4 h / Concentration in Bile: 4 hours after single daily 100 mg/kg oral doses for four days. Type of series: in vivo. The text has this:
Tables 2A-2B show ^14C-MGL-3196 dog ADME study design.

A further series deals with T1, CYP2A6 (Homo sapiens, UniProt P11509).
T1 sequence (P11509 1-494): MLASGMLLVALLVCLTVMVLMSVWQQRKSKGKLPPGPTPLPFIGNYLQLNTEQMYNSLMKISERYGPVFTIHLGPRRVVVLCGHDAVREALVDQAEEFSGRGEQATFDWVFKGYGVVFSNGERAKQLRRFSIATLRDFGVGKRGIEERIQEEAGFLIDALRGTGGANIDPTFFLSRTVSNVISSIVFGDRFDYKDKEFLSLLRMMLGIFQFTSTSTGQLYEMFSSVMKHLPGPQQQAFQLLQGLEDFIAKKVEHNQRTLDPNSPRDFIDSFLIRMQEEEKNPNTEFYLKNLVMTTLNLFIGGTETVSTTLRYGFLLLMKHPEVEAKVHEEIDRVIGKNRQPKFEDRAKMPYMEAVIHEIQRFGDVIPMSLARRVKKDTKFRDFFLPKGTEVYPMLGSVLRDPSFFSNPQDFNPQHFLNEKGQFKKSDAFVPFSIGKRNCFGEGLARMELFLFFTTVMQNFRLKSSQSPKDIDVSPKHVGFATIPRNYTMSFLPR
The series is described as follows: In vitro Cytochrome P-450 enzyme assay, CYP2A6. Type of series: in vitro ADME. The text has this: (§1) The following studies have been conducted: (a) in vitro drug protein binding, transporter (organic anion transporting polypeptide [OATP], P-glycoprotein [P-gp], breast cancer-related protein [BCRP], and multiple drug resistance protein 1 [MDR1]), and cytochrome P-450 enzyme assays to investigate absorption, distribution, and excretion; (b) in vivo MGL-3196 rat and dog oral PK and bioavailability studies; (c) in vivo ^14C-MGL-3196 rat and dog oral pharmacokinetics, absorption, excretion, and tissue distribution by quantitative whole-body autoradiography (QWBA) studies; and (d) liver disposition of MGL-3196 using an in vitro sandwiched hepatocyte model system (B-CLEAR® technology) in dog (SCDH) and human (SCHH) hepatocytes.

Series [2] can be described thus: Dog oral PK and bioavailability studies. In kind it is in vivo.
Excerpt: as §1
Rat & Dog PK/Bioavailability Studies were also performed.

In a further series the target is T2, OATP1B3 (Homo sapiens, UniProt Q9NPD5).
T2 sequence (Q9NPD5 1-702): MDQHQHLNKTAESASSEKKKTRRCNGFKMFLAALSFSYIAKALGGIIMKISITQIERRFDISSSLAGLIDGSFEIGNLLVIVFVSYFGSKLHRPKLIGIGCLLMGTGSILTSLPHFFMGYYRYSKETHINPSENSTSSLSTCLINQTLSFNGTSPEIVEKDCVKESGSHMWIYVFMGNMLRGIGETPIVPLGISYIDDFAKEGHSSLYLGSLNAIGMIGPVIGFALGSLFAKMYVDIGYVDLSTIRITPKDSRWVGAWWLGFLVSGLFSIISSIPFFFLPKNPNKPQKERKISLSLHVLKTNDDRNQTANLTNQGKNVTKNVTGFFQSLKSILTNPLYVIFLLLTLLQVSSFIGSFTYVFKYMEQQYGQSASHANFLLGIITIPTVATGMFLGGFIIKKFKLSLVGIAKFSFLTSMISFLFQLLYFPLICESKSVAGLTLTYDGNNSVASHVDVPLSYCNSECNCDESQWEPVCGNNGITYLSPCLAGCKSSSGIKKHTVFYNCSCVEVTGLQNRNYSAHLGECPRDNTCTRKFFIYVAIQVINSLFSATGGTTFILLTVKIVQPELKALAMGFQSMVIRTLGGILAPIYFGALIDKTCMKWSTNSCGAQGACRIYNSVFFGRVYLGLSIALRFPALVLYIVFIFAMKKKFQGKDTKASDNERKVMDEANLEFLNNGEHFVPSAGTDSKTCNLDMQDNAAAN
The series is described as follows: In vitro drug transporter assay, OATP1B3. Type of series: in vitro ADME.
Excerpt: as §1

The target in another series is T3, BCRP (Homo sapiens, UniProt Q9UNQ0).
T3 sequence (Q9UNQ0 1-655): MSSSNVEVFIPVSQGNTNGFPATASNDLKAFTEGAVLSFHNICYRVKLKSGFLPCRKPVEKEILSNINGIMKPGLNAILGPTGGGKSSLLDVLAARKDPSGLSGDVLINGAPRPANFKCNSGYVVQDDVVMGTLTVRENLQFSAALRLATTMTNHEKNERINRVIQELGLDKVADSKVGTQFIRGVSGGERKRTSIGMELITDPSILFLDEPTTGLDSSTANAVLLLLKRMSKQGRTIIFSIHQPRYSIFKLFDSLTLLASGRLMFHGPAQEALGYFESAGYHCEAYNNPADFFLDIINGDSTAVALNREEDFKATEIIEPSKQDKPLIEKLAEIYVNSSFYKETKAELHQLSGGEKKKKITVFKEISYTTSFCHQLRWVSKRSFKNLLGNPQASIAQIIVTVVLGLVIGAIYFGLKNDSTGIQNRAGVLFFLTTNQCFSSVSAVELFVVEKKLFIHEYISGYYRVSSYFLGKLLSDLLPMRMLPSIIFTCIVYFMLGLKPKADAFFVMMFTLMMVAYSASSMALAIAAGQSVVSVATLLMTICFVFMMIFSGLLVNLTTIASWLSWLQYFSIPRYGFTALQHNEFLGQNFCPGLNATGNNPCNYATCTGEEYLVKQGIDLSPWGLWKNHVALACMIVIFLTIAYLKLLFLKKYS
The series is described as follows: In vitro drug transporter assay, BCRP. Type of series: in vitro ADME.
Excerpt: as §1

A further series concerns the target BSEP (Homo sapiens, UniProt O95342). The experiment in a line: In vitro drug transporter assay, BSEP. Type of series: in vitro ADME. As to conditions: BSEP-mediated transport of TCA; read-out: Inhibitor of: BSEP, IC50.

Experimental findings from patent US11090308B2, “Methods of treating liver disorders or lipid disorders with a THR-beta agonist” (Madrigal Pharmaceuticals, Inc., priority 2016, dated 2021) are described below.

Where two headings read alike, the source gives them in different places.

Sequence of BSEP (O95342 whole entry, species assumed): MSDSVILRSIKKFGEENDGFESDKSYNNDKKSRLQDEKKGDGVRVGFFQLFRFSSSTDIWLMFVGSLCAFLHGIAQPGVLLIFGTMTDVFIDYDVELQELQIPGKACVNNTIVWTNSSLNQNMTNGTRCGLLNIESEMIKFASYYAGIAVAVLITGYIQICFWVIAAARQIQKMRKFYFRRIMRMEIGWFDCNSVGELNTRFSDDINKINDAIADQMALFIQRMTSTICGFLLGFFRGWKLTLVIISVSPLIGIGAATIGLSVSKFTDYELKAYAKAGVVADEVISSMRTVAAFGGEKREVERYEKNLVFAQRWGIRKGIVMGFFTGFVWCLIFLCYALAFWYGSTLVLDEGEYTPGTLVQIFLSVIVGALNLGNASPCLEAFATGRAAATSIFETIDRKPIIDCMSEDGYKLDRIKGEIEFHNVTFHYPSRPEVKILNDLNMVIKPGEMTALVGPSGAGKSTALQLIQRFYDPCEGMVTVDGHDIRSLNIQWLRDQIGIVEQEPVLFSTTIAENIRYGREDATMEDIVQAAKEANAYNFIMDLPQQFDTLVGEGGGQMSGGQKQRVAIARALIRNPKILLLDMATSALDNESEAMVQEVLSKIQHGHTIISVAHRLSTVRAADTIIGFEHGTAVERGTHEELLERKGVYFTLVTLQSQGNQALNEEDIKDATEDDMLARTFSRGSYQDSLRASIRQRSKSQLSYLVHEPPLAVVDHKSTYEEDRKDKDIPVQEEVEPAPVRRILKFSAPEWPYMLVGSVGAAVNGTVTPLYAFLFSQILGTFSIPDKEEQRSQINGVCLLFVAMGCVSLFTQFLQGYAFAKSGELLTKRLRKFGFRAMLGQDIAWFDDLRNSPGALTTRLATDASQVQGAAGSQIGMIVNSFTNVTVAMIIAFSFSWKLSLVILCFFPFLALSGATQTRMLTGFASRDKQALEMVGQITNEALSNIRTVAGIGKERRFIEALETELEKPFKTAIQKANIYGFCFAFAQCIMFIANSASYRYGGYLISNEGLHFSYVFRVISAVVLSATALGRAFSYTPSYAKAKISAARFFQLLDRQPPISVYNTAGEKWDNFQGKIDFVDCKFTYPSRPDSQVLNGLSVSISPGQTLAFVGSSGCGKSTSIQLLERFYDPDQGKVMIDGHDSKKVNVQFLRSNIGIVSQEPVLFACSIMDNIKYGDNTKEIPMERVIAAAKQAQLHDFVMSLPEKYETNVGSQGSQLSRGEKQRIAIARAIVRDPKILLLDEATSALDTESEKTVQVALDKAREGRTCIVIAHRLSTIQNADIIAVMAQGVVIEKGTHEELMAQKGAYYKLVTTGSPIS

`CC(C)c1cc(Oc2c(Cl)cc(-n3nc(C#N)c(=O)[nH]c3=O)cc2Cl)n[nH]c1=O` [MGL-3196, 2-(3,5-dichloro-4-((5-isopropyl-6-oxo-1,6-dihydropyridazin-3-yl)oxy)phenyl)-3,5-dioxo-2,3,4,5-tetrahydro-1,2,4-triazine-6-carbonitrile]: the concentration at 4 h in series [1] (dog, hepatic portal vein plasma, 100 mg/kg, Dog 1, read-out: Concentration in Hepatic Portal Vein Plasma) worked out at 18.8 µg/mL; in series [1] (dog, hepatic portal vein plasma, 100 mg/kg, Dog 2, read-out: Concentration in Hepatic Portal Vein Plasma), 86.6 µg/mL; in series [1] (dog, hepatic portal vein plasma, 100 mg/kg, Dog 3, read-out: Concentration in Hepatic Portal Vein Plasma), 98.6 µg/mL; in series [1] (dog, hepatic portal vein plasma, 100 mg/kg, Mean, read-out: Concentration in Hepatic Portal Vein Plasma) it was 68 µg/mL; in series [1] (dog, liver, 100 mg/kg, Dog 1, read-out: Concentration in Liver), 129000 ng/g; in series [1] (dog, liver, 100 mg/kg, Dog 2, read-out: Concentration in Liver), 319000 ng/g. Besides, the concentration at 4 h in series [1] (dog, liver, 100 mg/kg, Dog 3, read-out: Concentration in Liver) is 210000 ng/g; in series [1] (dog, liver, 100 mg/kg, Mean, read-out: Concentration in Liver), 219000 ng/g; in series [1] (dog, systemic plasma, 100 mg/kg, Dog 1, read-out: Concentration in Systemic Plasma), 16.7 µg/mL; in series [1] (dog, systemic plasma, 100 mg/kg, Dog 2, read-out: Concentration in Systemic Plasma), 81.5 µg/mL; in series [1] (dog, systemic plasma, 100 mg/kg, Dog 3, read-out: Concentration in Systemic Plasma), 115 µg/mL; in series [1] (dog, systemic plasma, 100 mg/kg, Mean, read-out: Concentration in Systemic Plasma) it was 71.1 µg/mL. In addition, the “Concentration in Bile” value in series [1] (Dog 1) was 26,400,000 ng/mL; in series [1] (Dog 2) it was 10,400,000 ng/mL; in series [1] (Dog 3), 15,500,000 ng/mL; in series [1] (Mean), 17,400,000 ng/mL. The Kp at 4 h in series [1] (bile versus plasma, oral, 100 mg/kg, dog, 4 h post-dose, read-out: concentration in bile higher than in plasma) is about 250; in series [1] (liver versus plasma, oral, dog, 4 h, 100 mg/kg, read-out: liver to plasma ratio), 3.1. Further, in series [1] (dog, 4 h post-dose), the “concentration in bile higher than in liver” value is reported as about 80 ×. Also, the Kp at 24 h in series [1] (liver versus plasma, oral, dog, 24 h, 100 mg/kg, read-out: liver to plasma ratio) came out at 267. Moreover, the “Inhibitor of: CYP2A6” value on CYP2A6 is recorded as “not an inhibitor”. Besides, the bioavailability in series [2] (dog, plasma, po) is 11 to 135%. The half-life in series [2] (dog, plasma, dogs, oral dosing, read-out: mean elimination half-life) lay in the range of 3 to 5.5 h. Moreover, the “time of maximum plasma concentrations” value in series [2] (dogs, oral dosing) lay in the range of 1 to 8 h. Further, the “Substrate for: OATP1B3” value at OATP1B3 is listed as “OATP1B3;”. For the same molecule, at OATP1B3 (@ 10 uM Pravastatin), the “Inhibitor of: OATP1B3, % inhibition” value is listed as “OATP1B3 (57% @ 10 uM Pravastatin)”. In addition, the “Substrate for: BCRP” value at BCRP is “BCRP”. The “Inhibitor of: BCRP, % inhibition” value on BCRP (@ 25 uM genistein) was 3-sulfate; 24% @ 25 uM genistein). Besides, the 50% inhibitory concentration (IC50) on BCRP (for Estrone-3-sulfate, read-out: Inhibitor of: BCRP, IC50) came to 27.4 µM; at BSEP, 34.7 µM.
Turning to `CC(CO)c1cc(Oc2c(Cl)cc(-n3nc(C#N)c(=O)[nH]c3=O)cc2Cl)n[nH]c1=O` (centres unmarked) [MGL-3623], the “Substrate for: OATP1B3” value on OATP1B3 was “OATP1B3”. Also, on OATP1B3 (weak, read-out: Inhibitor of: OATP1B3, IC50), the half-maximal inhibitory concentration (IC50) was 22.6 µM.
